Experimental data as given in US20140163082A1, “PYRAZOLYL COMPOUNDS FOR USE IN REVERSING REACTIVE GLIOSIS” (priority 2011, published 2014).

What was measured:
rMC-1 cells [1] = assay: Real time RT-PCR analysis, in vitro, rMC-1; type: cell-based
Experimental: A transformed Müller cell line [rMC-1] were grown in cell cultures in DMEM supplemented with 15% FBS, as well as with a fungicide mixture and 0.5% gentamicin in a humidified atmosphere of 5% CO2/95% air. Medium was changed every 2-3 days, and cells were grown to confluence in a 150-mm dish. Cells were split into 60-mm dishes and were used in the experiments when confluent. […] cells are immortalized rat retinal neurosensory/neuoroglial progenitor cells, by transfection with Adenovirus 12S E1A into the neonatal retinal tissue. […] cells express genes characteristic of neurons, as well as functional neuronal properties. […] cells were cultured in DMEM/F12 medium in a 1:1 mixture, supplemented with 5% FBS, 1.5 mM L-glutamine, 7.5 mM sodium pyruvate, 0.1 mM nonessential amino acids, 1×MEM, 0.37% sodium bicarbonate and 10 μg/ml gentamicin. Cells were incubated at 37° C. in the presence of 5% CO2. Human retinal microvascular endothelial cells [[…]][40,000 cells/well] were seeded in a 96-well plate and allowed to adhere overnight and incubated at 37° C. in normoxia. Cells were then cultured in 150 μl of CS-C medium supplemented with 10% FBS and in the presence of 1-100 μM YC-1 or DMSO [0.2%]. Cells were placed in airtight chambers [BioSpherix, Redfield, N.Y.] and the O2 tension was maintained at 1.2% by using Pro-Ox Model 110 O2 regulator [BioSpherix, Redfield, N.Y.]. The chamber was purged with a gas mixture of 5.32% CO2, and 93.48% N2. […] We used the primers summarized in [FIG. 6C] for RT-PCR. Gene-specific molecular beacons and primers were designed to encompass the genes of interest, with beacon's annealing site to overlap with the exon-exon junctions for additional specificity [Beacon Designer 6.0, Premier Biosoft International, Palo Alto, Calif., USA]. Threshold cycle [Ct] values for the different samples were utilized for the calculation of gene expression fold change using the formula 2 to the minus power of delta delta ct. Fold changes in the HIF-1, VEGF, PDGF-B, GFAP and iNOS gene relative to the β-actin endogenous control gene were determined by the following equation: fold change=2-Δ[ΔC T], where change in threshold cycle [ΔCT]=CT [gene of interest]-CT [β-actin] and Δ [ΔCT]=ΔCT [treated]-ΔCT [untreated].

R28 cells [2] = assay: GFAP immunofluorescence, R28; type: cell-based, rat; conditions: for GFAP protein expression (immunofluorescence): vs hypoxic controls
Experimental: (§1) Cells were placed in airtight chambers [BioSpherix, Redfield, N.Y.] and the O2 tension was maintained at 1.2% by using Pro-Ox Model 110 O2 regulator [BioSpherix, Redfield, N.Y.]. The chamber was purged with a gas mixture of 5.32% CO2, and 93.48% N2. […] Müller cells [rMC-1] and […] cells [2×10^4 cells per well] were grown on 8-well chamber slides and cultured in 300 μl of their growing media, which contained YC-1 [25-100 μM] or DMSO [0.2% v/v] and incubated under normoxia or hypoxia for 48 hours at 37° C. YC-1 or DMSO was added 5 minutes prior to the hypoxic incubation. The cells were fixed 48 hours later with 3.7% paraformaldehyde and permeabilized with 0.2% TritonTM X-100 in PBS. The cells were incubated for two hours with anti-GFAP antibody. Negative control experiments consisted of omission of the primary antibody. Cells were then incubated with HRP-conjugate working solution, followed by the addition of the […] solution [TSA Kit#2 and #4 for rMC-1 and […] staining, respectively] at 1:100 dilutions [Molecular Probes, Carlsbad, Calif.]. Digitized images were acquired utilizing AxioVision software [Zeiss Axiovert 135 and AxioCam]. Intensity values of immunofluorescence staining of GFAP in rMC-1 and […] cells was analyzed and quantified using MetamorphTM imaging analysis software version 6.0 [Universal Imaging, Sunnyvale, Calif.]. The staining intensity in our series ranged from a weak blush to moderate or strong. The amount of cells staining with the antibody was further categorized as focal [<10%], patchy [10%-50%], and diffuse [>50%]. For semiquantitative analysis, focal and/or weak staining was considered equivocal staining, and patchy or diffuse staining was subcategorized as either moderate or strong.

rMC-1 cells [3] = assay: GFAP immunofluorescence, rMC-1; type: cell-based; conditions: for GFAP protein expression (immunofluorescence): vs hypoxic controls
Experimental: as §1

R28 cells [4] = assay: Western blot, R28; type: cell-based, rat; conditions: R28, hypoxia 48 hours, YC-1 25-100 μM
Experimental: Cells were placed in airtight chambers [BioSpherix, Redfield, N.Y.] and the O2 tension was maintained at 1.2% by using Pro-Ox Model 110 O2 regulator [BioSpherix, Redfield, N.Y.]. The chamber was purged with a gas mixture of 5.32% CO2, and 93.48% N2. […] Müller cells [rMC-1] and […] cells were seeded overnight in 6-well plates [10^5 cells/well]. Cells were treated with either YC-1 [25-100 μM] or DMSO [0.2% v/v] for 48 hours under normoxic or hypoxic environments. Reactions were terminated by addition of lysis buffer [Cell Signaling, Beverly, Mass.]. Protein content of the cell lysates was determined according to the Bradford method [Bio-Rad, Hercules, Calif.]. Aliquots [40 μg] of whole-cell lysates were separated on 7.5% SDS-PAGE, and electro-transferred onto polyvinylidene membranes [Amersham Pharmacia Biotech, Little Chalfont]. After blocking with 5% nonfat dry milk in TBS-T, the blots were incubated overnight with anti-iNOS [at 1:100] and anti-β-actin [internal control] antibodies. Then blots were washed 3×10 min washes in PBS/tween and subsequently incubated with peroxidase-conjugated anti-mouse IgG secondary antibody at 1:3000. The signals were obtained by enhanced chemiluminescence [Amersham Biosciences], and visualized by exposure to X-ray film. Upon completion of chemiluminescence, equal lane loading was checked by Ponceau S Solution [Sigma, St. Louis, Mo.]. X-ray films were scanned with a computer-assisted densitometer [model G-710; Bio-Rad] to quantify band optical density [Quantity One software; Bio-Rad].

[5] = tested on: human retinal microvascular EC; conditions: refs [16, 17, 18]; cited from earlier work
[6] = rMC-1, hypoxia 48 hours, YC-1 25-100 μM, vs DMSO-treated hypoxic cells
[7] = R28, 25 μM YC-1, hypoxia 48 hours
[8] = rMC-1, 25 μM YC-1, hypoxia 48 hours

OCc1ccc(-c2nn(Cc3ccccc3)c3ccccc23)o1 [YC-1, 3-(5′-hydroxymethyl-2′-furyl)-1-benzylindazole]
PDGF-B mRNA level (rMC-1 cells [1]; [6]): significant dose-dependent attenuations | VEGF mRNA level (rMC-1 cells [1]; [6]): significant dose-dependent attenuations | iNOS mRNA level (rMC-1 cells [1]; [6]): significant dose-dependent attenuations | GFAP mRNA level (rMC-1 cells [1]; rMC-1, hypoxia, YC-1 25-100 μM, vs DMSO-treated hypoxic cells, normalized to β-actin): significant dose-dependent attenuations | HIF-1α message level (rMC-1 cells [1]; rMC-1, pre- vs post-YC-1 treatment): no differences | GFAP cytoplasmic staining pattern/intensity (immunofluorescence) (R28 cells [2]; [7]): stronger diffuse cytoplasmic GFAP staining | GFAP staining vs DMSO-treated hypoxic controls (immunofluorescence) (R28 cells [2]; [7]): remarkable inhibition | GFAP protein expression (immunofluorescence) (R28 cells [2]; R28, 50 μM YC-1, hypoxia): significant inhibitory effects | GFAP protein expression (immunofluorescence) (R28 cells [2]; R28, 75 μM YC-1, hypoxia): significant inhibitory effects | GFAP staining remaining in cytoplasm (immunofluorescence) (R28 cells [2]; R28, 100 μM YC-1, hypoxia): few stained regions | GFAP protein levels (quantified staining intensity, FIG. 11C) (R28 cells [2]; R28, hypoxia, dose-dependent fashion): significantly reduced | GFAP cytoplasmic staining pattern/intensity (immunofluorescence) (rMC-1 cells [3]; [8]): weaker equivocal staining intensity | GFAP staining vs DMSO-treated hypoxic controls (immunofluorescence) (rMC-1 cells [3]; [8]): remarkable inhibition | GFAP protein expression (immunofluorescence) (rMC-1 cells [3]; rMC-1, 50 μM YC-1, hypoxia): significant inhibitory effects | GFAP protein expression (immunofluorescence) (rMC-1 cells [3]; rMC-1, 75 μM YC-1, hypoxia): significant inhibitory effects | GFAP staining remaining in cytoplasm (immunofluorescence) (rMC-1 cells [3]; rMC-1, 100 μM YC-1, hypoxia): few stained regions | GFAP protein levels (quantified staining intensity, FIG. 11C) (rMC-1 cells [3]; rMC-1, hypoxia, dose-dependent fashion): significantly reduced | HIF-1 protein level (Western blot) (R28 cells [4]; vs DMSO-treated hypoxic cells): inhibited the hypoxia-induced upregulation | PDGF-B protein level (Western blot) (R28 cells [4]; vs DMSO-treated hypoxic cells): inhibited the hypoxia-induced upregulation | VEGF protein level (Western blot) (R28 cells [4]; vs DMSO-treated hypoxic cells): inhibited the hypoxia-induced upregulation | iNOS protein level (Western blot) (R28 cells [4]; vs DMSO-treated hypoxic cells): inhibited the hypoxia-induced upregulation | GFAP protein level (Western blot) (R28 cells [4]; vs non-treated hypoxic cells): inhibited the hypoxia-induced GFAP protein levels in a dose-dependent manner | HIF-1α, HIF-2α, VEGF, EPO, ET-1, and MMP-9 protein levels [5]: down-regulates
